According to patent US11033539B2, “Compounds of formulas (VII), (VIII), (IX), (XI), (XII), (XIII), and (XIV) as muscarinic receptor 4(M4) antagonists for treating neurological diseases” (Neurocrine Biosciences, Inc., priority 2015, dated 2021):

Each compound was assayed against human M4 receptor (Homo sapiens (Human), UniProt P08173) (assay: Radioligand (tritiated N-methylscopolamine) binding assay, M4). Conditions: Ki against the M4 receptor; membranes from CHO cells expressing human M4; tritiated N-methylscopolamine 1.5 nM; read-out: Ki.
Chain of human M4 receptor (P08173 whole entry): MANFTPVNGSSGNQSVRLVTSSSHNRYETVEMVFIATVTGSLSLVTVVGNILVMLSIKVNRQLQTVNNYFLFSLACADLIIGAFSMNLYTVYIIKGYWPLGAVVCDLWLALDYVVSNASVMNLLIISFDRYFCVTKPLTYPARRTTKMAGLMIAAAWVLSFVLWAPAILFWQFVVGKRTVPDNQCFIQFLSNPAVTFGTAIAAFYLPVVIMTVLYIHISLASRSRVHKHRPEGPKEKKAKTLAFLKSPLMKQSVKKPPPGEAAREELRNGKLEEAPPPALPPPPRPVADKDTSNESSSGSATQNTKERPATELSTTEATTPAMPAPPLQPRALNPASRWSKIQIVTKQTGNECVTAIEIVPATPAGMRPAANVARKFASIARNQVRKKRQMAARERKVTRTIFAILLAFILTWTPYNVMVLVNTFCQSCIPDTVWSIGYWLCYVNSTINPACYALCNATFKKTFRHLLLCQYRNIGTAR
Protocol: Binding affinity (Ki) of compounds was measured by inhibition of radioligand binding to membranes from CHO cells expressing human M1, M2, M3, M4 and M5 receptors. Membranes were prepared by nitrogen cavitation and differential centrifugation as previously described (Hoare et al., Mol. Pharmacol. 2003 March; 63(3): 751-65). The radioligand employed was tritiated N-methylscopolamine, used at a concentration of 1.5 nM. A dose-response of twelve concentrations of compound was used, ranging from 10 μM to […]. The assay buffer was 50 mM HEPES, 100 mM NaCl, 5 mM MgCl2, 1 mM ethylenediaminetetraacetic acid, pH-adjusted to pH 7.4. Membranes, radioligand and compound were incubated together for 90 minutes at 37° C., in a total volume of 150 μl in a 96-well plate. Receptor-bound radioligand was then collected by harvesting the assay over glass fiber filters pretreated with polyethylenimine to trap the cell membranes, using rapid vacuum filtration. Harvesting and radioactivity counting was conducted as previously described (see, e.g., Hoare et al., Mol. Pharmacol. 2003 63(3):751-65); Erratum at Mol. Pharmacol. 2005 July; 68(1): 260).

| Ki [nM] | Compound |
| --- | --- |
| 100 to 1000 | O=C(NCCC1CCN(Cc2ccccc2)CC1)C1CCN(c2ccccc2F)CC1 [10-59, N-[2-(1-benzylpiperidin-4-yl)ethyl]-1-(2-fluorophenyl)piperidine-4-carboxamide] |
| 100 to 1000 | N#Cc1cnc(N2CCN(C(=O)NCCC3CCN(Cc4ccccc4)CC3)[C@@H](CO)C2)nc1 [5-26, (2R)-N-[2-(1-benzylpiperidin-4-yl)ethyl]-4-(5-cyanopyrimidin-2-yl)-2-(hydroxymethyl)piperazine-1-carboxamide] |
| 10 to 100 | N#Cc1ccc(-c2ccc(C(=O)NCCC3CCN(Cc4ccccc4)CC3)cc2)cc1 [9-30, N-[2-(1-benzylpiperidin-4-yl)ethyl]-4-(4-cyanophenyl)benzamide] |
| 100 to 1000 | CNC(=O)c1cnc(N2CCN(C(=O)NCCC3CCN(Cc4ccccc4)CC3)[C@H](C)C2)nc1 [27-10] |
| 100 to 1000 | Cc1ccnc(N2CCC(C(=O)NCCC3CCN(Cc4ccccc4)CC3)CC2)c1 [9-52, N-[2-(1-benzylpiperidin-4-yl)ethyl]-1-(4-methylpyridin-2-yl)piperidine-4-carboxamide] |
| 100 to 1000 | CC1CN(c2ccccc2OC(F)(F)F)CCC1C(=O)NCCC1CCN(Cc2ccccc2)CC1 (centres unmarked) [10-16, N-[2-(1-benzylpiperidin-4-yl)ethyl]-3-methyl-1-[2-(trifluoromethoxy)phenyl]piperidine-4-carboxamide] |
| 10 to 100 | C[C@@H]1CN(c2cc(F)c(F)c(F)c2)CCN1C(=O)NCCC1CCN(Cc2ccccc2OC(F)F)CC1 [6-13, (2R)-N-[2-(1-{[2-(difluoromethoxy)phenyl]methyl}piperidin-4-yl)ethyl]-2-methyl-4-(3,4,5-trifluorophenyl)piperazine-1-carboxamide] |
| 10 to 100 | C[C@@H]1CN(c2cnc(C(F)(F)F)nc2)C[C@H](C)N1C(=O)NCCC1CCN(Cc2cccc(F)c2)CC1 [6-51, (2R,6S)-N-(2-{1-[(3-fluorophenyl)methyl]piperidin-4-yl}ethyl)-2,6-dimethyl-4-[2-(trifluoromethyl)pyrimidin-5-yl]piperazine-1-carboxamide] |
| 100 to 1000 | C[C@@H]1CN(c2cc(F)c(F)c(F)c2)CCN1C(=O)NCCC1CCN(Cc2cc(F)ccc2F)CC1 [6-25, (2R)-N-(2-{1-[(2,5-difluorophenyl)methyl]piperidin-4-yl}ethyl)-2-methyl-4-(3,4,5-trifluorophenyl)piperazine-1-carboxamide] |
| 10 to 100 | O=C(NCCC1CCN(Cc2ccccc2)CC1)C1CCN(c2ccc(C(F)(F)F)cn2)CC1 [10-24, N-[2-(1-benzylpiperidin-4-yl)ethyl]-1-[5-(trifluoromethyl)pyridin-2-yl]piperidine-4-carboxamide] |
| 100 to 1000 | C[C@@H]1CN(c2cc(F)c(F)c(F)c2)CCN1C(=O)NCCN(C)[C@@H]1C[C@H](CO)N(Cc2ccccc2)C1 [7-13, (2R)-N-(2-{[(3R,5R)-1-benzyl-5-(hydroxymethyl)pyrrolidin-3-yl](methyl)amino}ethyl)-2-methyl-4-(3,4,5-trifluorophenyl)piperazine-1-carboxamide] |
| 100 to 1000 | O=C(NCCC1CCN(Cc2ccccc2)CC1)[C@H]1CCN(c2cccc(OC(F)(F)F)c2)C1 [10-52, (3S)-N-[2-(1-benzylpiperidin-4-yl)ethyl]-1-[3-(trifluoromethoxy)phenyl]pyrrolidine-3-carboxamide] |
| 100 to 1000 | 4-(benzyloxy)-N-{2-[1-(pyridin-3-ylmethyl)piperidin-4-yl]ethyl}benzamide [11-20] |
| 100 to 1000 | C[C@@H]1CN(c2ncc(C(F)(F)F)cn2)CCN1C(=O)NCCC1CCN(Cc2ccccn2)CC1 [6-33, (2R)-2-methyl-N-{2-[1-(pyridin-2-ylmethyl)piperidin-4-yl]ethyl}-4-[5-(trifluoromethyl)pyrimidin-2-yl]piperazine-1-carboxamide] |
| 100 to 1000 | Cc1c(C(=O)NCCC2CCN(Cc3ccccc3O)CC2)cnc2cc(-c3ccccc3)nn12 [19-4] |
| 10 to 100 | C[C@@H]1CN(c2ncc(C(=O)NC3CC3)cn2)C[C@H](C)N1C(=O)NCCC1CCN(Cc2ccccc2)CC1 [27-1, 2-[(3R,5S)-4-{[2-(1-benzylpiperidin-4-yl)ethyl]carbamoyl}-3,5-dimethylpiperazin-1-yl]-N-cyclopropylpyrimidine-5-carboxamide] |
| 10 to 100 | C[C@@H]1CN(c2ccc(F)cc2F)CCN1C(=O)NCCC1CCN(Cc2ccccc2)CC1 [4-33, (2R)-N-[2-(1-benzylpiperidin-4-yl)ethyl]-4-(2,4-difluorophenyl)-2-methylpiperazine-1-carboxamide] |
| 10 to 100 | CN(C(=O)C1CCN(c2ccc(OC(F)(F)F)cc2)CC1)C1CCN(C2CCN(Cc3ccccc3)CC2)C1 (centres unmarked) [9-23, N-[1-(1-benzylpiperidin-4-yl)pyrrolidin-3-yl]-N-methyl-1-[4-(trifluoromethoxy)phenyl]piperidine-4-carboxamide] |
| 100 to 1000 | Cc1c(C(=O)NCCC2CCN(Cc3ccccc3)CC2)cnc2cc(-c3ccccc3)nn12 [17-2, N-[2-(1-benzylpiperidin-4-yl)ethyl]-7-methyl-2-phenylpyrazolo[1,5-a]pyrimidine-6-carboxamide] |

| Ki [nM] | Compound |
| --- | --- |
| 100 to 1000 | C[C@@H]1CN(c2ncc(C#N)cn2)C[C@H](C)N1C(=O)NCCC1CCN(CC2(C)COC2)CC1 [21-10] |
| 10 to 100 | N#Cc1ccc(N2CCC(C(=O)NCCC3CCN(Cc4ccccc4)CC3)CC2)cc1F [10-78, N-[2-(1-benzylpiperidin-4-yl)ethyl]-1-(4-cyano-3-fluorophenyl)piperidine-4-carboxamide] |
| 10 to 100 | O=C(NCCC1CCN(Cc2ccccc2)CC1)C1(O)CCN(c2cc(F)c(F)c(F)c2)CC1 [10-40, N-[2-(1-benzylpiperidin-4-yl)ethyl]-4-hydroxy-1-(3,4,5-trifluorophenyl)piperidine-4-carboxamide] |
| 10 to 100 | C[C@@H]1CN(c2cnc3ccccc3c2)CCN1C(=O)NCCC1CCN(Cc2ccccc2)CC1 [4-40, (2R)-N-[2-(1-benzylpiperidin-4-yl)ethyl]-2-methyl-4-(quinolin-3-yl)piperazine-1-carboxamide] |
| 100 to 1000 | C[C@@H]1CN(c2cc(F)c(F)c(F)c2)CCN1C(=O)NCCC1CCN(Cc2ccc(C#N)cc2F)CC1 [6-30, (2R)-N-(2-{1-[(4-cyano-2-fluorophenyl)methyl]piperidin-4-yl}ethyl)-2-methyl-4-(3,4,5-trifluorophenyl)piperazine-1-carboxamide] |
| 100 to 1000 | O=C(NCCC1CCN(Cc2cccc3c2OCC3)CC1)C1CCN(c2ccc(OC(F)(F)F)cc2)CC1 [11-29, N-{2-[1-(2,3-dihydro-1-benzofuran-7-ylmethyl)piperidin-4-yl]ethyl}-1-[4-(trifluoromethoxy)phenyl]piperidine-4-carboxamide] |
| 10 to 100 | COc1cc(N2CCN(C(=O)NCCC3CCN(Cc4ccccc4)CC3)[C@H](C)C2)ccn1 [22-16] |
| 100 to 1000 | CC(=O)c1ccc(N2CCN(C(=O)NCCC3CCN(Cc4ccccc4)CC3)CC2)cc1 [8-36, 4-(4-acetylphenyl)-N-[2-(1-benzylpiperidin-4-yl)ethyl]piperazine-1-carboxamide] |
| 100 to 1000 | O=C(NCCC1CCN(Cc2ccccc2)CC1)N1CCN(c2cccc(O)c2)CC1 [8-28, N-[2-(1-benzylpiperidin-4-yl)ethyl]-4-(3-hydroxyphenyl)piperazine-1-carboxamide] |
| 100 to 1000 | COc1cccc(CN2CCC(CCNC(=O)c3ccc(OCc4ccccc4)cc3)CC2)c1O [11-9, 4-(benzyloxy)-N-(2-{1-[(2-hydroxy-3-methoxyphenyl)methyl]piperidin-4-yl}ethyl)benzamide] |
| 100 to 1000 | O=C(NCCC1CCN(Cc2ccccc2)CC1)C1CCN(c2ncc(Br)cn2)CC1 [9-37, N-[2-(1-benzylpiperidin-4-yl)ethyl]-1-(5-bromopyrimidin-2-yl)piperidine-4-carboxamide] |
| 100 to 1000 | N#Cc1cc(N2CCC(O)(C(=O)NCCC3CCN(Cc4ccccc4)CC3)CC2)ccc1F [10-51, N-[2-(1-benzylpiperidin-4-yl)ethyl]-1-(3-cyano-4-fluorophenyl)-4-hydroxypiperidine-4-carboxamide] |
| 100 to 1000 | Cc1c(C(=O)NCCC2CCN(Cc3ccc(O)cc3)CC2)cnc2cc(-c3ccccc3)nn12 [19-8] |
| 100 to 1000 | COc1cccc(CN2CCC(CCNC(=O)c3cnc4cc(-c5ccccc5)nn4c3C)CC2)c1 [19-7] |
| 100 to 1000 | C[C@@H]1CN(c2ncc(C#N)cn2)C[C@H](C)N1C(=O)NCCC1CCN(Cc2ccc(C#N)cc2)CC1 [6-45, (2R,6S)-N-(2-{1-[(4-cyanophenyl)methyl]piperidin-4-yl}ethyl)-4-(5-cyanopyrimidin-2-yl)-2,6-dimethylpiperazine-1-carboxamide] |
| 100 to 1000 | O=C(NCCC1CCN(Cc2ccccc2)CC1)C1CCN(c2ccccc2)CC1 [10-3, N-[2-(1-benzylpiperidin-4-yl)ethyl]-1-phenylpiperidine-4-carboxamide] |
| 10 to 100 | O=C(NCCC1CCN(Cc2ccccc2)CC1)c1ccc(-c2ccc(Cl)cc2)cc1F [9-12, N-[2-(1-benzylpiperidin-4-yl)ethyl]-4-(4-chlorophenyl)-2-fluorobenzamide] |
| 100 to 1000 | O=C(NCCC1CCN(Cc2ccccc2)CC1)C1(F)CCN(c2ccccc2OC(F)(F)F)CC1 [10-17, N-[2-(1-benzylpiperidin-4-yl)ethyl]-4-fluoro-1-[2-(trifluoromethoxy)phenyl]piperidine-4-carboxamide] |
| 10 to 100 | C[C@@H]1CN(c2nc(C#N)cc(C#N)n2)CCN1C(=O)NCCC1CCN(Cc2ccccc2)CC1 [4-75, (2R)-N-[2-(1-benzylpiperidin-4-yl)ethyl]-4-(4,6-dicyanopyrimidin-2-yl)-2-methylpiperazine-1-carboxamide] |
